# Measurements taken from US12077503B2, “Substituted cyclic amides and their use as herbicides” (FMC CORPORATION, priority 2015, dated 2024).
# Legend:
# Experiment in all cases: Test A preemergence
# Format in all cases: in vivo
# Kochia (Kochia scoparia) = details: Bassia scoparia, pre-emergence, 240 h; for pest or weed control at 125 g/ha: 125 g ai/ha, preemergence, visual rating after approx. 10 d, 0 to 100 scale where 0 is no effect and 100 is complete control; for pest or weed control at 125 g/ha / pest or weed control at 31 g/ha: read-out: Plant response rating, Kochia; for pest or weed control at 500 g/ha: 500 g ai/ha, visual injury vs untreated controls after approximately 10 d, read-out: Kochia plant response rating (0 to 100 scale where 0 is no effect and 100 is complete control); for pest or weed control at 500 g/ha / pest or weed control at 31 g/ha: Preemergence; for pest or weed control at 31 g/ha: 31 g ai/ha, 0 to 100 scale (0 no effect, 100 complete control)
# Procedure, shortened: (§1)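 Greenhouse, ~10 d after spray; visual injury vs untreated controls, 0 = no effect, 100 = complete control. Preemergence: directed soil spray over planted seeds. Postemergence: plants 2–10 cm, 1–2 leaf stage. Loam/sand blend. Compound in non-phytotoxic solvent with surfactant.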
# [1] = tested on: barnyardgrass (Echinochloa crus-galli); details: Echinochloa crus-galli, pre-emergence, 240 h; for pest or weed control at 125 g/ha: 125 g ai/ha, preemergence, visual rating after approx. 10 d, 0 to 100 scale where 0 is no effect and 100 is complete control; for pest or weed control at 125 g/ha / pest or weed control at 31 g/ha: read-out: Plant response rating, Barnyardgrass; for pest or weed control at 500 g/ha: 500 g ai/ha, visual injury vs untreated controls after approximately 10 d, read-out: Barnyardgrass plant response rating (0 to 100 scale where 0 is no effect and 100 is complete control); for pest or weed control at 500 g/ha / pest or weed control at 31 g/ha: Preemergence; for pest or weed control at 31 g/ha: 31 g ai/ha, 0 to 100 scale (0 no effect, 100 complete control)
# Procedure, shortened: as §1
# [2] = tested on: giant foxtail (Setaria faberii); details: Setaria faberi, pre-emergence, 240 h; for pest or weed control at 125 g/ha: 125 g ai/ha, preemergence, visual rating after approx. 10 d, 0 to 100 scale where 0 is no effect and 100 is complete control; for pest or weed control at 125 g/ha / pest or weed control at 31 g/ha: read-out: Plant response rating, Foxtail, Giant; for pest or weed control at 500 g/ha: 500 g ai/ha, visual injury vs untreated controls after approximately 10 d, read-out: Foxtail, Giant plant response rating (0 to 100 scale where 0 is no effect and 100 is complete control); for pest or weed control at 500 g/ha / pest or weed control at 31 g/ha: Preemergence; for pest or weed control at 31 g/ha: 31 g ai/ha, 0 to 100 scale (0 no effect, 100 complete control)
# Procedure, shortened: as §1
# [3] = tested on: pigweed (Amaranthus retroflexus); details: Amaranthus retroflexus, pre-emergence, 240 h; for pest or weed control at 125 g/ha: 125 g ai/ha, preemergence, visual rating after approx. 10 d, 0 to 100 scale where 0 is no effect and 100 is complete control; for pest or weed control at 125 g/ha / pest or weed control at 31 g/ha: read-out: Plant response rating, Pigweed; for pest or weed control at 500 g/ha: 500 g ai/ha, visual injury vs untreated controls after approximately 10 d, read-out: Pigweed plant response rating (0 to 100 scale where 0 is no effect and 100 is complete control); for pest or weed control at 500 g/ha / pest or weed control at 31 g/ha: Preemergence; for pest or weed control at 31 g/ha: 31 g ai/ha, 0 to 100 scale (0 no effect, 100 complete control)
# [4] = tested on: ragweed (common ragweed, Ambrosia elatior); details: Ambrosia artemisiifolia, pre-emergence, 240 h; for pest or weed control at 125 g/ha: 125 g ai/ha, preemergence, visual rating after approx. 10 d, 0 to 100 scale where 0 is no effect and 100 is complete control; for pest or weed control at 125 g/ha / pest or weed control at 31 g/ha: read-out: Plant response rating, Ragweed; for pest or weed control at 500 g/ha: 500 g ai/ha, visual injury vs untreated controls after approximately 10 d, read-out: Ragweed plant response rating (0 to 100 scale where 0 is no effect and 100 is complete control); for pest or weed control at 500 g/ha / pest or weed control at 31 g/ha: Preemergence; for pest or weed control at 31 g/ha: 31 g ai/ha, 0 to 100 scale (0 no effect, 100 complete control)
# Procedure, shortened: as §1
# [5] = tested on: ryegrass, Italian (Italian ryegrass, Lolium multiflorum); details: Lolium multiflorum, pre-emergence, 240 h; for pest or weed control at 125 g/ha: 125 g ai/ha, preemergence, visual rating after approx. 10 d, 0 to 100 scale where 0 is no effect and 100 is complete control; for pest or weed control at 125 g/ha / pest or weed control at 31 g/ha: read-out: Plant response rating, Ryegrass, Italian; for pest or weed control at 500 g/ha: 500 g ai/ha, visual injury vs untreated controls after approximately 10 d, read-out: Ryegrass, Italian plant response rating (0 to 100 scale where 0 is no effect and 100 is complete control); for pest or weed control at 500 g/ha / pest or weed control at 31 g/ha: Preemergence; for pest or weed control at 31 g/ha: 31 g ai/ha, 0 to 100 scale (0 no effect, 100 complete control)
# Procedure, shortened: as §1
Structure (SMILES),pest or weed control at 125 g/ha (Kochia (Kochia scoparia)) [%],pest or weed control at 500 g/ha (Kochia (Kochia scoparia)) [%],pest or weed control at 125 g/ha [1] [%],pest or weed control at 500 g/ha [1] [%],pest or weed control at 125 g/ha [2] [%],pest or weed control at 500 g/ha [2] [%],pest or weed control at 125 g/ha [3] [%],pest or weed control at 500 g/ha [3] [%],pest or weed control at 125 g/ha [4] [%],pest or weed control at 500 g/ha [4] [%],pest or weed control at 125 g/ha [5] [%],pest or weed control at 500 g/ha [5] [%],pest or weed control at 31 g/ha (Kochia (Kochia scoparia)) [%],pest or weed control at 31 g/ha [1] [%],pest or weed control at 31 g/ha [2] [%],pest or weed control at 31 g/ha [3] [%],pest or weed control at 31 g/ha [4] [%],pest or weed control at 31 g/ha [5] [%]
CC(F)(F)c1cccc([C@H]2CNC(=O)[C@@H]2C(=O)Nc2cccc(F)c2F)c1 [Compound 779],70,80,90,90,90,90,40,60,20,70,40,40,–,–,–,–,–,–
CC(F)(F)c1cccc([C@H]2CNC(=O)[C@@H]2C(=O)Nc2ccccc2S(C)(=O)=O)c1 [Compound 780],40,80,80,90,90,90,0,50,40,70,0,20,–,–,–,–,–,–
CN1C[C@H](c2cc(F)cc(F)c2)[C@@H](C(=O)Nc2ncccc2F)C1=O [Compound 783],30,50,0,70,0,80,0,0,0,0,0,0,–,–,–,–,–,–
CS(=O)(=O)c1ccccc1NC(=O)[C@H]1C(=O)NC[C@@H]1c1ccc(OC(F)F)cc1 [Compound 787],80,90,20,70,70,90,50,80,70,70,0,0,–,–,–,–,–,–
Cc1cc([C@H]2CNC(=O)[C@@H]2C(=O)Nc2ccccc2F)ccc1Cl [Compound 789],–,30,90,90,60,90,0,20,0,0,0,0,–,–,–,–,–,–
Cc1cc([C@H]2CNC(=O)[C@@H]2C(=O)Nc2cccc(F)c2F)ccc1Cl [Compound 790],70,80,90,90,70,90,0,40,20,60,30,70,–,–,–,–,–,–
CN1CC[C@@H](c2cccc(C(F)(F)F)c2)[C@H](C(=O)Nc2ccccc2F)C1=O [Compound 794],0,–,90,–,90,–,0,–,0,–,0,–,0,70,30,0,0,0
CSc1ccccc1NC(=O)[C@H]1C(=O)N(C)C[C@@H]1c1cc(C)c(C)c(C)c1 [Compound 798],20,–,80,–,90,–,40,–,0,–,0,–,0,20,70,30,0,0
CSc1ccccc1NC(=O)[C@H]1C(=O)N(C)C[C@@H]1c1ccc(C(F)F)cc1 [Compound 799],40,–,40,–,90,–,40,–,0,–,0,–,0,0,70,30,0,0
Cc1cc(F)cc([C@H]2CN(C)C(=O)[C@@H]2C(=O)Nc2ccc(F)c(F)c2F)c1 [Compound 801],70,–,90,–,90,–,30,–,60,–,20,–,40,80,80,30,20,0
CN1C[C@H](c2ccc(C(F)F)cc2)[C@@H](C(=O)Nc2ccccc2F)C1=O [Compound 803],70,–,90,–,90,–,60,–,60,–,0,–,50,70,90,40,30,0
CN1CC[C@H](c2cccc(OC(F)(F)F)c2)[C@@H](C(=O)Nc2cccc(F)c2F)C1=O [Compound 807],50,–,100,–,100,–,40,–,0,–,70,–,0,100,100,0,0,20
CN1CC[C@H](c2cccc(OC(F)(F)F)c2)[C@@H](C(=O)Nc2cccc(Cl)c2F)C1=O [Compound 810],0,–,90,–,90,–,0,–,0,–,20,–,0,90,70,0,0,0
